Consider 26 molecules from patent publication US12552771B2, “Carboxylic acid containing azetidinyl compounds for the treatment of neurodegenerative diseases” (Celgene Corporation, priority 2021, dated 2026).

Usually EC50 stands for the midpoint of the concentration-response curve.

The structures appear in SMILES notation. Where a name gives a salt, the structure may show the parent alone.

For the assay, the target named is T1, S1P5 receptors (Homo sapiens, UniProt Q9H228).
T1 construct: expressed in transfected cells; host or cells: CHO cells (membranes)
T1 sequence (Q9H228 whole entry): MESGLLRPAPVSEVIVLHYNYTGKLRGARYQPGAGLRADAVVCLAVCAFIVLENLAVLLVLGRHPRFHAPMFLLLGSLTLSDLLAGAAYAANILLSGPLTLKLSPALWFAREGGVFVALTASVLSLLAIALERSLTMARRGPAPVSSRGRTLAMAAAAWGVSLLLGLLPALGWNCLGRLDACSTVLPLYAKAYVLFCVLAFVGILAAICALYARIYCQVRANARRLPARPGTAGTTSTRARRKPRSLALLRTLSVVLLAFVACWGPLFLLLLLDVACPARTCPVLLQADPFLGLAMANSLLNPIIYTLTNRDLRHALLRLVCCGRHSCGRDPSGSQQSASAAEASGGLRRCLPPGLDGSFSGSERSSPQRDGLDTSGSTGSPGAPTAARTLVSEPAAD
Kind of assay: [35S]-GTPγS binding assay with CHO-S1P5 receptor membranes. The class given is biochemical. As to conditions: membranes of CHO cells expressing recombinant S1P5 receptors; measure of S1P5 agonism. The procedure: CHO cells expressing recombinant S1P5 receptors were cultured in 500 cm^2 culture trays and, once confluent, rinsed and detached with cell-lifting buffer (10 mM HEPES, 154 mM NaCl, 6.85 mM EDTA, pH 7.4). Cells were then pelleted by centrifugation, resuspended, and homogenized in membrane preparation buffer (10 mM HEPES and 10 mM EDTA, pH 7.4) using a Polytron PT 1200E homogenizer (Kinematica, Luzern, Switzerland). Cellular proteins were pelleted by centrifugation at 48,000×g at 4° C. for 30 minutes. The resulting supernatant was discarded, and the pellet was re-suspended again in membrane preparation buffer, homogenized for a second time, and then centrifuged again as described above. The final cellular protein pellet was suspended in ice cold resuspension buffer (10 mM HEPES and 0.1 mM EDTA, pH 7.4), divided into aliquots, and stored at −80° C. until use.
Functional binding assays for [^35]-GTPγS were performed in 96-well non-binding surface plates with a final volume of 200 μL. The test compounds were serially diluted in DMSO and added to assay plates using a Tecan D300E digital printer with a total volume of […]. The control sphingosine-1-phosphate (SiP) was prepared separately by preparing a 400 μM stock solution from a 100 nmol pellet of SiP in 10 mM Na2CO3 with 2% […]. The serial dilution of SiP was done using complete assay buffer (20 mM HEPES, 10 mM MgCl2, 100 mM NaCl, 1 mM EDTA, 0.1% fatty acid free bovine serum albumin (BSA), and 30 μg/mL saponin, pH 7.4) and transferred to wells already containing 0.4 μL DMSO. All the wells were then loaded to a total volume of 40 μL of complete assay buffer, except the non-specific binding (NSB) wells. For NSB wells, 40 μL/well of 50 μM GTPγS (Sigma Aldrich, cat #G8634, St. Louis, MO) was added to wells containing 0.4 μL of DMSO. The assay was started by the addition of 120 μL/well of CHO-S1P receptor membrane solution containing 40 μg/mL of membrane protein, 16.67 μM guanosine diphosphate (GDP; Sigma Aldrich, cat #G7127, St. Louis, MO), and 2.5 mg/mL of WGA PVT SPA beads in complete buffer. Assay plates were then sealed and incubated at room temperature with gentle agitation for 30 minutes. Next, 40 μL/well of 1 nM of [^35]-GTPγS (PerkinElmer, cat #NEG030X250UC, Waltham, MA) in basic assay buffer (20 mM HEPES, 10 mM MgCl2, 100 mM NaCl, and 1 mM EDTA, pH7.4) was added to the assay plates to yield a final concentration of 200 pM and the plates were further incubated for 40 minutes at room temperature with gentle agitation. The assay was terminated by centrifugation of the plates at 1000 rpm for 3 minutes using an Eppendorf 5810R centrifuge (Eppendorf, Hamburg, Germany) and G protein bound radioactivity was quantitated using a MicroBeta2 microplate scintillation counter (PerkinElmer, Waltham, MA). As G protein bound radioactivity directly correlates to receptor activation and coupling to the G protein, this assay is a measure of S1P5 agonism.
As for `Cc1cc(C2CN(c3c(Cl)cccc3Cl)C2)cc(C)c1CN1CCC(C(=O)O)CC1` [Compound 15, 1-(4-(1-(2,6-dichlorophenyl)azetidin-3-yl)-2,6-dimethylbenzyl)piperidine-4-carboxylic acid], the EC50 was at most 10 nM.

`Cc1cc(C2CN(c3c(Cl)cccc3Cl)C2)cnc1CN1CCC(C(=O)O)CC1` [Compound 76, 1-((5-(1-(2,6-dichlorophenyl)azetidin-3-yl)-3-methylpyridin-2-yl)methyl)-piperidine-4-carboxylic acid]: the EC50 is 10 to 100 nM.

Turning to `Cc1cc(C2CN(c3c(C)cccc3F)C2)cc(C)c1CN1CCC(C(=O)O)CC1` [Compound 66, 1-(4-(1-(2-fluoro-6-methylphenyl)azetidin-3-yl)-2,6-dimethylbenzyl)-piperidine-4-carboxylic acid], the EC50 is at most 10 nM.

Take `O=C(O)C1CCN(Cc2ccc(N3CC(c4c(F)cccc4F)C3)cc2)CC1` [Compound 27, 1-(4-(3-(2,6-difluorophenyl)azetidin-1-yl)benzyl)piperidine-4-carboxylic acid]: the half-maximal effective concentration (EC50) fell in the range of 100 to 1000 nM.

Turning to `O=C(O)C1CCN(Cc2ccc(N3CC(c4c(Cl)cccc4Cl)C3)cc2F)CC1` [Compound 33, 1-(4-(3-(2,6-dichlorophenyl)azetidin-1-yl)-2-fluorobenzyl)piperidine-4-carboxylic acid], the 50% effective concentration (EC50) fell in the range of 10 to 100 nM.

Take `O=C(O)C1CCN(Cc2ccc(N3CC(c4c(Cl)cccc4Cl)C3)c(F)c2)CC1` [Compound 34, 1-(4-(3-(2,6-dichlorophenyl)azetidin-1-yl)-3-fluorobenzyl)piperidine-4-carboxylic acid]: the EC50 was at most 10 nM.

Consider `O=C(O)C1CCN(Cc2ccc(C3CN(c4c(Cl)cccc4Cl)C3)cc2F)CC1` [Compound 23, 1-(4-(1-(2,6-dichlorophenyl)azetidin-3-yl)-2-fluorobenzyl)piperidine-4-carboxylic acid], for which the concentration for a half-maximal effect (EC50) is at most 10 nM.

`Cc1cc(C2CN(c3c(Cl)cccc3Cl)C2)c(C)nc1CN1CCC(C(=O)O)CC1` [Compound 82, 1-((5-(1-(2,6-dichlorophenyl)azetidin-3-yl)-3,6-dimethylpyridin-2-yl)-methyl)piperidine-4-carboxylic acid]: the half-maximal effective concentration (EC50) lay within 100 to 1000 nM.

As for `CC(C)c1cc(C2CN(c3c(Cl)cccc3Cl)C2)cc(C(C)C)c1CN1CCC(C(=O)O)CC1` [Compound 53, 1-(4-(1-(2,6-dichlorophenyl)azetidin-3-yl)-2,6-diisopropylbenzyl)piperidine-4-carboxylic acid], the EC50 lay in the range of 100 to 1000 nM.

Regarding `O=C(O)C1CCN(Cc2ccc(C3CN(c4ccccc4F)C3)cc2)CC1` [Compound 40, 1-(4-(1-(2-fluorophenyl)azetidin-3-yl)benzyl)piperidine-4-carboxylic acid], the concentration giving a half-maximal response (EC50) was in the range of 100 to 1000 nM.

On to `O=C(O)C1CCN(C2CCc3cc(C4CN(c5c(Cl)cccc5Cl)C4)cc(F)c32)CC1` (racemic) [Compound 6, 1-(5-(1-(2,6-dichlorophenyl)azetidin-3-yl)-7-fluoro-2,3-dihydro-1H-inden-1-yl)piperidine-4-carboxylic acid], for which the EC50 is at most 10 nM.

For `O=C(O)C1CCN(Cc2ccc(N3CC(c4c(Cl)cccc4Cl)C3)cc2)CC1` [Compound 24, 1-(4-(3-(2,6-dichlorophenyl)azetidin-1-yl)benzyl)piperidine-4-carboxylic acid], the concentration for a half-maximal effect (EC50) fell in the range of 10 to 100 nM.

Take `Cc1cc(C2CN(c3c(Cl)cccc3Cl)C2)cc(C2CC2)c1CN1CCC(C(=O)O)CC1` [Compound 57, 1-(2-cyclopropyl-4-(1-(2,6-dichlorophenyl)azetidin-3-yl)-6-methylbenzyl)-piperidine-4-carboxylic acid]: the half-maximal effective concentration (EC50) is at most 10 nM.

`Cc1cc(C2CN(c3c(Cl)cccc3Cl)C2)cc(Cl)c1CN1CCC(C(=O)O)CC1` [Compound 51, 1-(2-chloro-4-(1-(2,6-dichlorophenyl)azetidin-3-yl)-6-methylbenzyl)-piperidine-4-carboxylic acid]: the 50% effective concentration (EC50) was at most 10 nM.

As to `O=C(O)C1CCN(Cc2ccc(N3CC(c4c(Cl)cccc4Cl)C3)cn2)CC1` [Compound 29, 1-((5-(3-(2,6-dichlorophenyl)azetidin-1-yl)pyridin-2-yl)methyl)piperidine-4-carboxylic acid], the EC50 was in the range of 10 to 100 nM.

As for `O=C(O)C1CCN(C2CCc3cc(N4CC(c5ccccc5F)C4)ccc32)CC1` (single isomer, unassigned) [Compound 10b, 1-(5-(3-(2-fluorophenyl)azetidin-1-yl)-2,3-dihydro-1H-inden-1-yl)piperidine-4-carboxylic acid], the concentration for a half-maximal effect (EC50) was 1000 to 10000 nM.

As for `O=C(O)C1CCN(Cc2ccc(C3CN(c4cccc(F)c4)C3)cc2)CC1` [Compound 41, 1-(4-(1-(3-fluorophenyl)azetidin-3-yl)benzyl)piperidine-4-carboxylic acid], the concentration giving a half-maximal response (EC50) lay within 1000 to 10000 nM.

On to `Cc1cc(CN2CCC(C(=O)O)CC2)cc(C)c1C1CN(c2c(Cl)cccc2Cl)C1` [Compound 20, 1-(4-(1-(2,6-dichlorophenyl)azetidin-3-yl)-3,5-dimethylbenzyl)piperidine-4-carboxylic acid], for which the concentration for a half-maximal effect (EC50) was at most 10 nM.

As to `Cc1cc(C2CN(c3c(Cl)cccc3Cl)C2)c(C)cc1CN1CCC(C(=O)O)CC1` [Compound 19, 1-(4-(1-(2,6-dichlorophenyl)azetidin-3-yl)-2,5-dimethylbenzyl)piperidine-4-carboxylic acid], the EC50 is at most 10 nM.

`O=C(O)C1CCN(Cc2ccc(C3CN(c4ccccc4)C3)cc2)CC1` [Compound 39, 1-(4-(1-phenylazetidin-3-yl)benzyl)piperidine-4-carboxylic acid]: the concentration giving a half-maximal response (EC50) lay in the range of 1000 to 10000 nM.

On to `Cc1cc(C2CN(c3c(Cl)cccc3Cl)C2)cc(C)c1CN1CCC(C)(C(=O)O)CC1` [Compound 90, 1-(4-(1-(2,6-dichlorophenyl)azetidin-3-yl)-2,6-dimethylbenzyl)-4-methyl-piperidine-4-carboxylic acid, formic acid salt], for which the 50% effective concentration (EC50) was at most 10 nM.

Take `Cc1cc(CN2CCC(C(=O)O)CC2)c(C)nc1C1CN(c2c(Cl)cccc2Cl)C1` [Compound 83, 1-((6-(1-(2,6-dichlorophenyl)azetidin-3-yl)-2,5-dimethyl-pyridin-3-yl)methyl)piperidine-4-carboxylic acid]: the concentration for a half-maximal effect (EC50) was in the range of 10 to 100 nM.

Consider `O=C(O)C1CCN(Cc2ccc(C3CN(c4c(Cl)cccc4Cl)C3)cn2)CC1` [Compound 18, 1-((5-(1-(2,6-dichlorophenyl)azetidin-3-yl)pyridin-2-yl)methyl)piperidine-4-carboxylic acid], for which the EC50 was in the range of 100 to 1000 nM.

On to `Cc1cc(CN2CCC(C(=O)O)CC2)ncc1C1CN(c2c(Cl)cccc2Cl)C1` [Compound 77, 1-((5-(1-(2,6-dichlorophenyl)azetidin-3-yl)-4-methylpyridin-2-yl)methyl)-piperidine-4-carboxylic acid], for which the EC50 was 100 to 1000 nM.

As for `Cc1cc(C2CN(c3ccccc3)C2)cc(C)c1CN1CCC(C(=O)O)CC1` [Compound 45, 1-(2,6-dimethyl-4-(1-phenylazetidin-3-yl)benzyl)piperidine-4-carboxylic acid], the EC50 is 100 to 1000 nM.

Take `Cc1cc(C2CN(c3c(F)cccc3F)C2)cc(C)c1CN1CCC(C(=O)O)CC1` [Compound 44, 1-(4-(1-(2,6-difluorophenyl)azetidin-3-yl)-2,6-dimethylbenzyl)piperidine-4-carboxylic acid]: the EC50 is 10 to 100 nM.
